Relative viability data for eight cell lines are collected here from the supplement of paper PMC10307832.

Assay in all cases: relative viability (nuclei count vs DMSO), 5 days (fraction); higher = more cells survive
Compound in the assay “AZD1208 + Pictilisib”: N[C@@H]1CCCN(c2c(/C=C3\SC(=O)NC3=O)cccc2-c2ccccc2)C1 [AZD1208] + CS(=O)(=O)N1CCN(Cc2cc3nc(-c4cccc5[nH]ncc45)nc(N4CCOCC4)c3s2)CC1 [Pictilisib] (partner 1 µM)
The method in brief: (§1)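 Relative viability divides the nuclei count in treated wells by that in vehicle wells. Lung cancer cell lines were seeded in 1536-well plates, dosed by pin tool the next day, and fixed and stained after 5 days in one step with final 0.05% Triton X-100, 1% formaldehyde and 1 ug/ml Hoechst. Dosing was a single drug or a fixed anchor-drug dose plus five library-drug doses (not always all listed) in √10 steps, and values are medians of duplicate plates imaged at 4×.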

Compound in the assay “AZD1208 + Palbociclib”: N[C@@H]1CCCN(c2c(/C=C3\SC(=O)NC3=O)cccc2-c2ccccc2)C1 [AZD1208] + CC(=O)c1c(C)c2cnc(Nc3ccc(N4CCNCC4)cn3)nc2n(C2CCCC2)c1=O [Palbociclib] (partner 0.5 µM)
The method in brief: as §1

Compound in the assay “XMD14-99 + Palbociclib”: CN1CCN(CC1)C2=CC(=C(C=C2)NC3=NC(=C(S3)C(=O)C4=C(C=CC=C4Cl)Cl)N)OC [XMD14-99] + CC(=O)c1c(C)c2cnc(Nc3ccc(N4CCNCC4)cn3)nc2n(C2CCCC2)c1=O [Palbociclib] (partner 0.5 µM)
In short, it runs like this: as §1

Compound in the assay “AZD1208 + Trametinib”: N[C@@H]1CCCN(c2c(/C=C3\SC(=O)NC3=O)cccc2-c2ccccc2)C1 [AZD1208] + CC(=O)Nc1cccc(-n2c(=O)n(C3CC3)c(=O)c3c(Nc4ccc(I)cc4F)n(C)c(=O)c(C)c32)c1 [Trametinib] (partner 0.02 µM)
The method in brief:
as §1

Calu-6: the relative viability in the assay with AZD1208 + Pictilisib (first compound 0.08 µM) was determined as 0.784; in the assay with AZD1208 + Pictilisib (first compound 0.253 µM), 1; in the assay with AZD1208 + Pictilisib (first compound 0.8 µM), 0.851; with AZD1208 + Pictilisib (first compound 2.53 µM), 0.829; in the assay with AZD1208 + Pictilisib (first compound 8 µM), 0.739.
As to ChaGo-K-1, the relative viability turned out to be 0.905 in the assay with AZD1208 + Palbociclib (first compound 0.08 µM); 0.969 with AZD1208 + Palbociclib (first compound 0.253 µM); 0.874 with AZD1208 + Palbociclib (first compound 0.8 µM); 0.906 with AZD1208 + Palbociclib (first compound 2.53 µM); 0.884 with AZD1208 + Palbociclib (first compound 8 µM); 0.972 with XMD14-99 + Palbociclib (first compound 0.08 µM). Also, the relative viability in the assay with XMD14-99 + Palbociclib (first compound 0.8 µM) was found to be 0.93; with XMD14-99 + Palbociclib (first compound 2.53 µM), 0.975; with XMD14-99 + Palbociclib (first compound 8 µM), 0.873; in the assay with AZD1208 + Pictilisib (first compound 0.08 µM), 0.979; with AZD1208 + Pictilisib (first compound 0.253 µM), 0.698; with AZD1208 + Pictilisib (first compound 0.8 µM), 0.644. Further, the relative viability in the assay with AZD1208 + Pictilisib (first compound 2.53 µM) was determined as 0.537; with AZD1208 + Pictilisib (first compound 8 µM), 0.484; in the assay with AZD1208 + Trametinib (first compound 0.08 µM), 0.884; with AZD1208 + Trametinib (first compound 0.253 µM), 0.905; with AZD1208 + Trametinib (first compound 0.8 µM), 0.78; in the assay with AZD1208 + Trametinib (first compound 2.53 µM), 0.88. Besides, in the assay with AZD1208 + Trametinib (first compound 8 µM), the relative viability was 0.806.
On to EBC-1, for which the relative viability with AZD1208 + Pictilisib (first compound 0.08 µM) turned out to be 0.2; with AZD1208 + Pictilisib (first compound 0.253 µM), 0.275; with AZD1208 + Pictilisib (first compound 0.8 µM), 0.265; with AZD1208 + Pictilisib (first compound 2.53 µM) it was 0.271; in the assay with AZD1208 + Pictilisib (first compound 8 µM) it was 0.274.
In the case of EKVX, the relative viability in the assay with AZD1208 + Palbociclib (first compound 0.08 µM) was 0.383; with AZD1208 + Palbociclib (first compound 0.253 µM) it was 0.41; with AZD1208 + Palbociclib (first compound 0.8 µM), 0.336; with AZD1208 + Palbociclib (first compound 2.53 µM) it was 0.332; with AZD1208 + Palbociclib (first compound 8 µM), 0.419; with XMD14-99 + Palbociclib (first compound 0.08 µM), 0.358. The relative viability was 0.403 with XMD14-99 + Palbociclib (first compound 0.8 µM); 0.377 with XMD14-99 + Palbociclib (first compound 2.53 µM); 0.361 in the assay with XMD14-99 + Palbociclib (first compound 8 µM); 0.395 with AZD1208 + Pictilisib (first compound 0.08 µM); 0.421 with AZD1208 + Pictilisib (first compound 0.253 µM); 0.349 with AZD1208 + Pictilisib (first compound 0.8 µM). Further, the relative viability with AZD1208 + Pictilisib (first compound 2.53 µM) turned out to be 0.375; with AZD1208 + Pictilisib (first compound 8 µM), 0.365; with AZD1208 + Trametinib (first compound 0.08 µM) it was 0.35; in the assay with AZD1208 + Trametinib (first compound 0.253 µM) it was 0.387; in the assay with AZD1208 + Trametinib (first compound 0.8 µM), 0.306; with AZD1208 + Trametinib (first compound 2.53 µM), 0.309. For the same cell line, in the assay with AZD1208 + Trametinib (first compound 8 µM), the relative viability is 0.45.
EMC-BAC-2: the relative viability with AZD1208 + Palbociclib (first compound 0.08 µM) stood at 0.518; in the assay with AZD1208 + Palbociclib (first compound 0.253 µM), 0.51; in the assay with AZD1208 + Palbociclib (first compound 0.8 µM) it was 0.504; in the assay with AZD1208 + Palbociclib (first compound 2.53 µM) it was 0.494; in the assay with AZD1208 + Palbociclib (first compound 8 µM) it was 0.432; in the assay with XMD14-99 + Palbociclib (first compound 0.08 µM), 0.523. Besides, the relative viability in the assay with XMD14-99 + Palbociclib (first compound 0.8 µM) was determined as 0.516; in the assay with XMD14-99 + Palbociclib (first compound 2.53 µM), 0.509; with XMD14-99 + Palbociclib (first compound 8 µM), 0.481; in the assay with AZD1208 + Pictilisib (first compound 0.08 µM) it was 0.537; with AZD1208 + Pictilisib (first compound 0.253 µM), 0.528; in the assay with AZD1208 + Pictilisib (first compound 0.8 µM) it was 0.463. Besides, the relative viability with AZD1208 + Pictilisib (first compound 2.53 µM) is 0.474; in the assay with AZD1208 + Pictilisib (first compound 8 µM) it was 0.47; with AZD1208 + Trametinib (first compound 0.08 µM), 0.852; in the assay with AZD1208 + Trametinib (first compound 0.253 µM), 0.83; with AZD1208 + Trametinib (first compound 0.8 µM) it was 0.777; in the assay with AZD1208 + Trametinib (first compound 2.53 µM), 0.806. In addition, in the assay with AZD1208 + Trametinib (first compound 8 µM), the relative viability was 0.702.
On to EPLC-272H, for which the relative viability with AZD1208 + Palbociclib (first compound 0.08 µM) is 0.363; with AZD1208 + Palbociclib (first compound 0.253 µM), 0.34; with AZD1208 + Palbociclib (first compound 0.8 µM) it was 0.326; with AZD1208 + Palbociclib (first compound 2.53 µM) it was 0.308; in the assay with AZD1208 + Palbociclib (first compound 8 µM), 0.373; in the assay with XMD14-99 + Palbociclib (first compound 0.08 µM) it was 0.306. For the same cell line, the relative viability was 0.299 with XMD14-99 + Palbociclib (first compound 0.8 µM); 0.324 in the assay with XMD14-99 + Palbociclib (first compound 2.53 µM); 0.347 with XMD14-99 + Palbociclib (first compound 8 µM); 0.362 with AZD1208 + Pictilisib (first compound 0.08 µM); 0.278 with AZD1208 + Pictilisib (first compound 0.253 µM); 0.349 in the assay with AZD1208 + Pictilisib (first compound 0.8 µM). The relative viability with AZD1208 + Pictilisib (first compound 2.53 µM) amounted to 0.324; in the assay with AZD1208 + Pictilisib (first compound 8 µM), 0.271; with AZD1208 + Trametinib (first compound 0.08 µM) it was 0.312; in the assay with AZD1208 + Trametinib (first compound 0.253 µM) it was 0.268; with AZD1208 + Trametinib (first compound 0.8 µM), 0.279; in the assay with AZD1208 + Trametinib (first compound 2.53 µM), 0.254. In addition, in the assay with AZD1208 + Trametinib (first compound 8 µM), the relative viability was found to be 0.315.
In the case of H3255, the relative viability is 0.299 in the assay with AZD1208 + Palbociclib (first compound 0.08 µM); 0.307 in the assay with AZD1208 + Palbociclib (first compound 0.253 µM); 0.333 with AZD1208 + Palbociclib (first compound 0.8 µM); 0.314 with AZD1208 + Palbociclib (first compound 2.53 µM); 0.326 in the assay with AZD1208 + Palbociclib (first compound 8 µM); 0.317 in the assay with XMD14-99 + Palbociclib (first compound 0.08 µM). Also, the relative viability is 0.303 in the assay with XMD14-99 + Palbociclib (first compound 0.8 µM); 0.296 with XMD14-99 + Palbociclib (first compound 2.53 µM); 0.295 with XMD14-99 + Palbociclib (first compound 8 µM); 0.402 in the assay with AZD1208 + Pictilisib (first compound 0.08 µM); 0.44 with AZD1208 + Pictilisib (first compound 0.253 µM); 0.408 with AZD1208 + Pictilisib (first compound 0.8 µM). Moreover, the relative viability is 0.364 with AZD1208 + Pictilisib (first compound 2.53 µM); 0.451 with AZD1208 + Pictilisib (first compound 8 µM); 0.537 with AZD1208 + Trametinib (first compound 0.08 µM); 0.616 in the assay with AZD1208 + Trametinib (first compound 0.253 µM); 0.636 with AZD1208 + Trametinib (first compound 0.8 µM); 0.624 with AZD1208 + Trametinib (first compound 2.53 µM). In addition, the relative viability in the assay with AZD1208 + Trametinib (first compound 8 µM) was found to be 0.519.
Consider HARA, for which the relative viability with AZD1208 + Palbociclib (first compound 0.08 µM) came to 0.268; with AZD1208 + Palbociclib (first compound 0.253 µM), 0.258; with AZD1208 + Palbociclib (first compound 0.8 µM), 0.246; with AZD1208 + Palbociclib (first compound 2.53 µM) it was 0.291; with AZD1208 + Palbociclib (first compound 8 µM), 0.261; in the assay with XMD14-99 + Palbociclib (first compound 0.08 µM), 0.291. The relative viability turned out to be 0.25 with XMD14-99 + Palbociclib (first compound 0.8 µM); 0.281 with XMD14-99 + Palbociclib (first compound 2.53 µM); 0.204 in the assay with XMD14-99 + Palbociclib (first compound 8 µM); 0.349 in the assay with AZD1208 + Pictilisib (first compound 0.08 µM); 0.373 in the assay with AZD1208 + Pictilisib (first compound 0.253 µM); 0.452 in the assay with AZD1208 + Pictilisib (first compound 0.8 µM). For the same cell line, the relative viability stood at 0.286 in the assay with AZD1208 + Pictilisib (first compound 2.53 µM); 0.363 with AZD1208 + Pictilisib (first compound 8 µM); 0.551 with AZD1208 + Trametinib (first compound 0.08 µM); 0.743 with AZD1208 + Trametinib (first compound 0.253 µM); 0.761 in the assay with AZD1208 + Trametinib (first compound 0.8 µM); 0.542 in the assay with AZD1208 + Trametinib (first compound 2.53 µM). In the assay with AZD1208 + Trametinib (first compound 8 µM), the relative viability was 0.35.
